Laboratory results reported in publication PMC11211671, “Phage‐displayed heptapeptide sequence conjugation significantly improves the specific targeting ability of antimicrobial peptides against Staphylococcus aureus” (mLife, 2024).
In brackets after ≈: the same amount, converted by molar mass. Peptide text beside a SMILES is read from it.

How the values were obtained:
[1] = system: E. coli K99; format: cell-based, Escherichia coli; conditions: microbroth dilution, MHB, 37°C, 18–24 h, OD492 < 0.1; repeated three times in duplicate
Protocol: (§1) MICs were determined to evaluate the antimicrobial activities of the peptides. The bacteria were inoculated into Mueller‐Hinton broth (MHB) medium in advance and placed in a shaker at 37°C until the logarithmic growth phase. The optical density value at OD600 of the bacterial suspension was adjusted to 0.4, and then diluted 1000 times with sterile MHB medium. Subsequently, the peptides with concentrations of 0.25–128 μM were prepared using bovine serum albumin (BSA) solution (0.2% BSA and 0.01% acetic acid) as the solvent on a 96‐well plate. Different concentrations of peptides and bacterial liquids were mixed in equal volumes. MHB medium containing bacteria was used as a positive control. MHB medium without bacteria was used as a negative control. Then, the mixture of peptides and bacteria was cultured in an incubator at 37°C for 18–24 h. The optical density of each well was measured at 492 nm using a microplate reader. The lowest drug concentration corresponding to a culture mixture with an optical density of less than 0.1 is the MIC of the peptide. The assay was repeated three times in duplicate.

[2] = system: E. coli 25922; format: cell-based, Escherichia coli
Protocol: as §1

[3] = system: E. coli K88; format: cell-based, Escherichia coli; conditions: microbroth dilution, MHB, 37°C, 18–24 h, OD492 < 0.1; repeated three times in duplicate
Protocol: as §1

[4] = system: P. aeruginosa 27853; format: cell-based, Pseudomonas aeruginosa
Protocol: as §1

[5] = system: P. aeruginosa 15442; format: cell-based, Pseudomonas aeruginosa
Protocol: as §1

[6] = system: red blood cells; format: cell-based, pig
Protocol: A series of parameters such as charge number, hydrophobicity, sequence length, and amphipathicity can affect the hemolytic activity of peptides against red blood cells. The minimal hemolytic concentration (MHC) refers to the minimum concentration that causes hemolysis of 10 % of red blood cells, and is often used to evaluate the hemolytic activity of the peptides. Except for SFK3, the percentage of hemolysis at 128 μM was below 5% for all peptides. Hemolysis of the erythrocytes occurred after incubation with Triton X‐100, with complete fragmentation of the erythrocytes and a bright red color of the reaction system (Figure 2B,C and Table S5).
The hemolytic activity of the peptide was calculated by measuring the level of […] released from mammalian red blood cell lysis induced by the peptide, [44]. Fresh porcine blood was collected from the jugular vein and washed with PBS three times, and red blood cells were collected. A red blood cell suspension of 10% (v/v) concentration was prepared in 10 mM PBS (pH = 7.4). After mixing with different concentrations of peptides in equal volume, they were incubated at 37°C for 2 h. Red blood cells treated with PBS and 0.1% Triton X‐100 were used as negative and positive controls, respectively. The assay was repeated three times. After the sample was centrifuged, the supernatant was transferred to a new 96‐well plate, and the optical density at 570 nm was measured using a microplate reader. Hemolysis was calculated as follows: Hemolytic activity(%)=ODtest sample−ODnegative control/ODpositive control−ODnegative control×100%

[7] = system: S. epidermidis 12228; format: cell-based, Staphylococcus epidermidis
Protocol: as §1

[8] = system: S. aureus 6538; format: cell-based, Staphylococcus aureus
Protocol: as §1

[9] = system: S. aureus 1882; format: cell-based, Staphylococcus aureus
Protocol: as §1

[10] = system: S. aureus ATCC 6538; test: Drug resistance assay, continuous passaging at sub-MIC; format: cell-based, Staphylococcus aureus
Protocol: The fold change in the MIC of peptides and […] against S. aureus ATCC 6538 was measured using the continuous passaging method to evaluate the development of drug resistance. The MIC values of the peptide and vancomycin against S. aureus ATCC 6538 were determined according to the above method, and the solutions in the sub‐MIC wells were aspirated and transferred to a fresh MHB medium for the next round of MIC determination. The procedure lasted for 30 days.

SMILES	MIC E. coli K99 [1] [µM]	MIC E. coli 25922 [2] [µM]	MIC E. coli K88 [3] [µM]	MIC P. aeruginosa 27853 [4] [µM]	MIC P. aeruginosa 15442 [5] [µM]	MHC [6]	MIC S. epidermidis 12228 [7] [µM]	MIC S. aureus 6538 [8] [µM]	MIC S. aureus 1882 [9] [µM]	Fold increase of MIC compared with the initial value ([10]; Day 9, sub-MIC passaging) [fold]	MIC relative to the initial value ([10]; end of the trial (30 days), sub-MIC passaging) [times]
CC[C@H](C)[C@H](NC(=O)[C@H](CCCNC(=N)N)NC(=O)[C@H](CO)NC(=O)[C@H](CC(C)C)NC(=O)[C@H](Cc1ccccc1)NC(=O)[C@H](Cc1ccccc1)NC(=O)[C@H](Cc1ccccc1)NC(=O)CNC(=O)CNC(=O)CNC(=O)[C@H](CO)NC(=O)[C@H](C)NC(=O)[C@H](CCCNC(=N)N)NC(=O)[C@@H](NC(=O)[C@H](Cc1c[nH]c2ccccc12)NC(=O)[C@H](Cc1ccc(O)cc1)NC(=O)[C@@H](N)CO)C(C)C)C(=O)N[C@@H](Cc1ccccc1)C(=O)N[C@@H](CCCCN)C(=O)N[C@@H](CCCCN)C(=O)N[C@@H](CCCCN)C(N)=O [SFK3] (H-SYWVRASGGGFFFLSRIFKKK-NH2)	16 (≈ 39.7 µg/mL)	>64	16 (≈ 39.7 µg/mL)	>64	>64	>128 μM	>64	2 (≈ 4.96 µg/mL)	1 (≈ 2.48 µg/mL)	–	–
CC[C@H](C)[C@H](NC(=O)[C@H](CCCNC(=N)N)NC(=O)[C@H](CO)NC(=O)[C@H](CC(C)C)NC(=O)[C@H](Cc1ccccc1)NC(=O)[C@H](Cc1ccccc1)NC(=O)[C@H](Cc1ccccc1)NC(=O)CNC(=O)CNC(=O)CNC(=O)[C@H](CO)NC(=O)[C@H](C)NC(=O)[C@H](CCCNC(=N)N)NC(=O)[C@@H](NC(=O)[C@H](Cc1c[nH]c2ccccc12)NC(=O)[C@H](Cc1ccc(O)cc1)NC(=O)[C@@H](N)CO)C(C)C)C(=O)N[C@@H](Cc1ccccc1)C(=O)N[C@@H](CCCCN)C(N)=O [SFK] (H-SYWVRASGGGFFFLSRIFK-NH2)	64 (≈ 142 µg/mL)	>64	32 (≈ 71.2 µg/mL)	>64	>64	>128 μM	>64	4 (≈ 8.9 µg/mL)	2 (≈ 4.45 µg/mL)	–	–
CC[C@H](C)[C@H](NC(=O)[C@H](CCCNC(=N)N)NC(=O)[C@H](CO)NC(=O)[C@H](CC(C)C)NC(=O)[C@H](Cc1ccccc1)NC(=O)[C@H](Cc1ccccc1)NC(=O)[C@H](Cc1ccccc1)NC(=O)CNC(=O)CNC(=O)CNC(=O)[C@H](CO)NC(=O)[C@H](C)NC(=O)[C@H](CCCNC(=N)N)NC(=O)[C@@H](NC(=O)[C@H](Cc1c[nH]c2ccccc12)NC(=O)[C@H](Cc1ccc(O)cc1)NC(=O)[C@@H](N)CO)C(C)C)C(=O)N[C@@H](Cc1ccccc1)C(=O)N[C@@H](CCCNC(=N)N)C(=O)N[C@@H](CCCNC(=N)N)C(N)=O [SFR2] (H-SYWVRASGGGFFFLSRIFRR-NH2)	64 (≈ 154 µg/mL)	>64	32 (≈ 77.1 µg/mL)	>64	>64	>128 μM	>64	4 (≈ 9.64 µg/mL)	1 (≈ 2.41 µg/mL)	–	–
CC[C@H](C)[C@H](NC(=O)[C@H](CCCNC(=N)N)NC(=O)[C@H](CO)NC(=O)[C@H](CC(C)C)NC(=O)[C@H](Cc1ccccc1)NC(=O)[C@H](Cc1ccccc1)NC(=O)[C@H](Cc1ccccc1)NC(=O)CNC(=O)CNC(=O)CNC(=O)[C@H](CO)NC(=O)[C@H](C)NC(=O)[C@H](CCCNC(=N)N)NC(=O)[C@@H](NC(=O)[C@H](Cc1c[nH]c2ccccc12)NC(=O)[C@H](Cc1ccc(O)cc1)NC(=O)[C@@H](N)CO)C(C)C)C(=O)N[C@@H](Cc1ccccc1)C(=O)N[C@@H](CCCNC(=N)N)C(=O)N[C@@H](CCCNC(=N)N)C(=O)N[C@@H](CCCNC(=N)N)C(N)=O [SFR3] (H-SYWVRASGGGFFFLSRIFRRR-NH2)	>64	>64	32 (≈ 82.1 µg/mL)	>64	>64	>128 μM	>64	16 (≈ 41 µg/mL)	4 (≈ 10.3 µg/mL)	–	–
CC[C@H](C)[C@H](NC(=O)[C@H](CCCNC(=N)N)NC(=O)[C@H](CO)NC(=O)[C@H](CC(C)C)NC(=O)[C@H](Cc1ccccc1)NC(=O)[C@H](Cc1ccccc1)NC(=O)[C@H](Cc1ccccc1)NC(=O)CNC(=O)CNC(=O)CNC(=O)[C@H](CO)NC(=O)[C@H](C)NC(=O)[C@H](CCCNC(=N)N)NC(=O)[C@@H](NC(=O)[C@H](Cc1c[nH]c2ccccc12)NC(=O)[C@H](Cc1ccc(O)cc1)NC(=O)[C@@H](N)CO)C(C)C)C(=O)N[C@@H](Cc1ccccc1)C(=O)N[C@@H](CCCNC(=N)N)C(N)=O [SFR] (H-SYWVRASGGGFFFLSRIFR-NH2)	32 (≈ 72.1 µg/mL)	>64	32 (≈ 72.1 µg/mL)	>64	>64	>128 μM	>64	2 (≈ 4.51 µg/mL)	2 (≈ 4.51 µg/mL)	–	–
CC[C@H](C)[C@H](NC(=O)[C@H](CCCNC(=N)N)NC(=O)[C@H](CO)NC(=O)[C@H](CC(C)C)NC(=O)[C@H](Cc1ccccc1)NC(=O)[C@H](Cc1ccccc1)NC(=O)[C@H](Cc1ccccc1)NC(=O)CNC(=O)CNC(=O)CNC(=O)[C@H](CO)NC(=O)[C@H](C)NC(=O)[C@H](CCCNC(=N)N)NC(=O)[C@@H](NC(=O)[C@H](Cc1c[nH]c2ccccc12)NC(=O)[C@H](Cc1ccc(O)cc1)NC(=O)[C@@H](N)CO)C(C)C)C(=O)N[C@@H](Cc1ccccc1)C(N)=O [SF] (H-SYWVRASGGGFFFLSRIF-NH2)	>64	>64	>64	>64	>64	>128 μM	>64	16 (≈ 33.5 µg/mL)	2 (≈ 4.19 µg/mL)	–	–
O=C(O)c1cn(C2CC2)c2cc(N3CCNCC3)c(F)cc2c1=O [ciprofloxacin]	–	–	–	–	–	–	–	–	–	16	2560
